According to publication PMC3006138, “Fexinidazole – A New Oral Nitroimidazole Drug Candidate Entering Clinical Development for the Treatment of Sleeping Sickness” (PLoS Neglected Tropical Diseases, 2010):
Several values for one entry are separate records, joined by “and”; a condition that tells them apart may be missing. Identical values can stand only once.

Legend:
[1] = test system: MDR1-MDCK cell monolayers; assay: in vitro; conditions: MDCK-MDR1
Procedure: (§1) Caco-2 [36] or MDR1-MDCK (Madin Darby canine kidney cells transfected with the human multidrug resistance MDR1 gene) cell monolayers were grown to confluence on collagen-coated, microporous, polycarbonate membranes in 12-well microtitre plates. The buffer for the donor chamber was Hanks balanced salt solution with 10 mM HEPES and 15 mM glucose at pH 7.4. The buffer in the receiver chamber contained the same with the addition of 1% bovine serum albumin (BSA). The test article was added at 5 µM in the assay buffer. […] After 2 h, duplicate aliquots were taken from the donor and receiver chambers and assayed via LC/MS. The apparent permeability and recovery were calculated using standard methods.
(§2) The objective of this study was to determine the bi-directional MDR1-MDCK permeability and efflux limited absor ption potential of thr ee test compounds. […]
(§3) 4. Th e buff er in th e r ecei ver cha m ber a l so con t a in ed 1% Bovi n e Ser um Al bumin ( BSA) . Th e test compound dosing concentrations were 5 µM in th e a ssay bu f fer . […] After two hours, a l iquot s wer e t a ken fr om th e r ecei ver an d don or cha m ber s. E a ch det erm ina ti on wa s per for m ed in dupl i cat e. Th e Lucifer Yellow flux was also measur ed for each mon olayer after bein g subjected to th e test compoun ds to en sur e n o damage was in flicted to th e cell mon olayer s durin g th e flux per iod. All samples wer e assayed by LC/MS/MS usin g electrospray ionization. Analytical conditions are outlined in Attachment I. The apparent permeability, Papp, and per cen t r ecover y wer e calculated as follows: […]
(§4) dCr /dt is th e slope of th e cumulative con cen tration in th e r eceiver compartment ver sus time in µM s -1. […]

[2] = test system: MDR1 (human, transfected); assay: in vitro; conditions: dog, MDCK-MDR1, pH 7.4
Procedure: as §1, §2, §3, §4

in vitro = conditions: dog
Procedure: as §1, §2, §3, §4

human MDR1 = assay: in vitro; conditions: dog, MDCK-MDR1, pH 7.4
Procedure: as §1, §2, §3, §4

[3] = Whole-body autoradiography; type: in vivo, rat
Procedure: Whole-body autoradiography in rats was conducted using [^14C]-radiolabelled fexinidazole. The site of the [^14C] label in the fexinidazole molecule on the bridging carbon atom ensured that the radioactivity would remain associated with both the sulfoxide and sulfone metabolites. The radiolabelled compound was administered at the dose of 800 mg/kg (approximately 3.7 MBq/kg, 100 µCi/kg) by gastric gavage to eight male albino Sprague Dawley rats. Two animals were sacrificed at each time point 2, 8, 24 or 48 h after administration and the quantitative radioactivity distribution in the organs and tissues was evaluated using quantitative whole-body autoradiography. […]
This study was conducted according to Protocol N° 0510-2007. A copy of the experimental protocol is included in Appendix 1.
FEXINIDAZOLE is a 5-nitroimidazole derivative biologically active against Trypanosoma parasites (T.b. rhodesiense and T.b. brucei) and useful in the treatment of the Human African Trypanosomiasis (HAT), known as sleeping sickness.
FEXINIDAZOLE is a compound currently under development by the Study Sponsor.
The objective of this study was to obtain information on the tissue distribution of radioactive drug-related material following oral administration of [14C]-FEXINIDAZOLE (800 mg/kg) to male Sprague Dawley rats.
The albino Sprague Dawley rat was chosen as the species for this study since it was one of the species used in the toxicological evaluation of the test compound. Only male animals were used as no gender differences were expected with respect to the aim of the study. The oral route of administration was chosen as this is the intended therapeutic route. The dose level was selected in agreement with the Study Sponsor and it is within the pharmacological relevant range. No overt toxicity was expected after single dosing at […]
The study was conducted on 8 male animals after single oral administration of [14C]- FEXINIDAZOLE (800 mg/kg, approximately 3.7 MBq/kg, 100 µCi/kg). The animals were sacrificed at 2, 8,24 and 48 hours after administration and each rat was analyzed by a validated Whole Body Autoradioluminography (WBA) method, in order to evaluate the quantitative tissue distribution of radioactivity.
A summary of the experimental design is reported below:
Animal no. Date of Dosing Administered Dose Samples collected and (oral administration) analyzed
M3, M4 100 µCi/kg Whole body sections
The experimental phase of the study started on June 10, 2008 and was completed on July […]
6.6. Preparation and Analysis of Dose Formulation
The test formulation was prepared on the day of dosing by suspending unlabelled FEXINIDAZOLE and [14C]-FEXINIDAZOLE (see section 6.1) in 5% Tween 80 and 0.5% Methyl cellulose 400 cP (Methocel) in water, in order to obtain [14C]- FEXINIDAZOLE at the final target concentration of 80 mg/mL, corresponding to a radioactivity concentration of about 370 kBq/mL (10 µCi/mL).
The test formulation was prepared by suspending an appropriate amount of unlabelled FEXINIDAZOLE in the dose vehicle. This formulation was homogenised using a Potter-Elvehjem homogenizer apparatus (teflon pestle of approx. 30 mm x 53 mm and glass tube of 40 mL), in order to obtain a fine suspension by up-and-down strokes, gently made by hand. The formulation was then collected and transferred from the homogeniser glass tube to the glass pot containing the [14C]-FEXINIDAZOLE.
During the preparation the test formulation was protected from light as far as possible.
The radioactivity concentration and homogeneity of the test formulation were determined, before administration, by liquid scintillation counting of triplicate weighed aliquots of test formulation. The radiolabelled test formulation was used immediately after formulation.
6.7.1. Administered Doses
The dose of [14C]-FEXINIDAZOLE was orally administered by gastric gavage at the target dose level of 800 mg/kg (radioactivity dose of about 3.7 MBq/kg, 100 µCi/kg) and at a target dose volume of about 10 mL/kg. […]

With `CSc1ccc(OCc2ncc([N+](=O)[O-])n2C)cc1` [Fexinidazole, 1-methyl-2-((p-(methylthio)phenoxy)methyl)-5-nitroimidazole] the “Papp B-A / Papp A-B Ratio” value [1] was “no significant efflux”, the efflux ratio at 2 h, 5 µM [2] was 0.9 and the Papp A→B at 2 h, 5 µM (in vitro; MDCK-MDR1, pH 7.4) was 60.6 ×10⁻⁶ cm/s. It also gave a recovery at 2 h, 5 µM (in vitro; MDCK-MDR1, pH 7.4, Percent Recovery A→B) of 71%, a recovery at 2 h, 5 µM (in vitro; MDCK-MDR1, pH 7.4, Percent Recovery B→A) of 77% and a Papp B→A at 2 h, 5 µM (human MDR1) of 55.1 ×10⁻⁶ cm/s. For the same compound, the “brain-to-blood concentration ratio of radioactivity” value ([3]; 800 mg/kg po, all times) was 0.4–0.6, the Mean radioactivity concentration ([3]; Blood, 2h) was 303.2 µgeq/g and the Mean radioactivity concentration ([3]; Blood, 8h) was 273.0 µgeq/g. It also gave a Mean radioactivity concentration ([3]; Blood, 24h) of 51.3 µgeq/g, a Mean radioactivity concentration ([3]; Blood, 48h) of 14.3 µgeq/g and a Mean radioactivity concentration ([3]; Brain, 2h) of 159.7 µgeq/g. It also gave a Mean radioactivity concentration ([3]; Brain, 8h) of 148.5 µgeq/g, a Mean radioactivity concentration ([3]; Brain, 24h) of 22.4 µgeq/g and a Mean radioactivity concentration ([3]; Brain, 48h) of 5.7 µgeq/g. For the same compound, the Radioactivity concentration ([3]; Intestine wall, 2h, listed as [14C]-FEXINIDAZOLE) was 4900 - 5600 µgeq/g and 5281.4 µgeq/g.
